{"source": "patent US20190055231A1", "about": "“BACE1 INHIBITORS” (Hoffmann-La Roche Inc., priority 2016, published 2019)", "key": {"Human P-gp": {"target": "Human P-gp (Homo sapiens, UniProt P08183)", "sequence (P08183 whole entry)": "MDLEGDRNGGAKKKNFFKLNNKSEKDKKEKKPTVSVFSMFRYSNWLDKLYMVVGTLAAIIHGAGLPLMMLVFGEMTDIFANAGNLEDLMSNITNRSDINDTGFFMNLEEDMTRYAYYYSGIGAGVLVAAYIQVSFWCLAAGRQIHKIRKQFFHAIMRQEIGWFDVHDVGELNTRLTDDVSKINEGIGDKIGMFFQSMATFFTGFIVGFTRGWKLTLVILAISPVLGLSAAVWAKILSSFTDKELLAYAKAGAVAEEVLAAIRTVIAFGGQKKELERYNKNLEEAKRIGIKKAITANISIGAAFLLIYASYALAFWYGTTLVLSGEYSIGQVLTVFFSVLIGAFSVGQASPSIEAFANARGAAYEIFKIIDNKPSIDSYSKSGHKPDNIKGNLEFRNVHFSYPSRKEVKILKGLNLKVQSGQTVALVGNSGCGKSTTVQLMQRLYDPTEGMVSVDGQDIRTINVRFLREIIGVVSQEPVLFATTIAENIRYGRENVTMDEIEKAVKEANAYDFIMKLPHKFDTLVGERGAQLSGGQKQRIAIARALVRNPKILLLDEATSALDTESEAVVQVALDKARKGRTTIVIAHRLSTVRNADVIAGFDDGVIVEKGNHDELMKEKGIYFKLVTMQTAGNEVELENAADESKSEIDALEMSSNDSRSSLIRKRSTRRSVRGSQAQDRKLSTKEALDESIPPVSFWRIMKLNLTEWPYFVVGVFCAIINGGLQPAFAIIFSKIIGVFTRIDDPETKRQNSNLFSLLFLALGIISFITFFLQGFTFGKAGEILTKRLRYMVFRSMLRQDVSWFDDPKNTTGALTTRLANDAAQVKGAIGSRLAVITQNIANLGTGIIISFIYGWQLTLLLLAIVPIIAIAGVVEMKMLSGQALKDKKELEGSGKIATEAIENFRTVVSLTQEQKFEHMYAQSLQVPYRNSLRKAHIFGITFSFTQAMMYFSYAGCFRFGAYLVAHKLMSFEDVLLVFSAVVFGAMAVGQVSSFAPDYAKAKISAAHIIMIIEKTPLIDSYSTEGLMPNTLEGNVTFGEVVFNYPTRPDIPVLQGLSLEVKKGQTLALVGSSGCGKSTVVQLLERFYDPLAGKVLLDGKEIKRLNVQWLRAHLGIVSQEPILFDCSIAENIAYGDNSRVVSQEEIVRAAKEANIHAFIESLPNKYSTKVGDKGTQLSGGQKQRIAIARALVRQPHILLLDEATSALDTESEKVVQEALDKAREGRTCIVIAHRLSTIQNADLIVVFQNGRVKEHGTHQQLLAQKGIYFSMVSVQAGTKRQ", "test": "P-gp transport assay (human)", "format": "in vitro ADME", "details": "efflux ratio", "description": "(§1) P-Gp Transport Assay (Human and Mouse) (P-Gp Assay)\n(§2) In the assay of the P-gp efflux ratio ER as described hereinabove, a compound with ER<2.5 is regarded most suitable. In addition, compounds with low hERG channel binding are suitable as well."}, "hERG channel": {"target": "hERG channel (Homo sapiens, UniProt Q12809)", "sequence (Q12809 whole entry)": "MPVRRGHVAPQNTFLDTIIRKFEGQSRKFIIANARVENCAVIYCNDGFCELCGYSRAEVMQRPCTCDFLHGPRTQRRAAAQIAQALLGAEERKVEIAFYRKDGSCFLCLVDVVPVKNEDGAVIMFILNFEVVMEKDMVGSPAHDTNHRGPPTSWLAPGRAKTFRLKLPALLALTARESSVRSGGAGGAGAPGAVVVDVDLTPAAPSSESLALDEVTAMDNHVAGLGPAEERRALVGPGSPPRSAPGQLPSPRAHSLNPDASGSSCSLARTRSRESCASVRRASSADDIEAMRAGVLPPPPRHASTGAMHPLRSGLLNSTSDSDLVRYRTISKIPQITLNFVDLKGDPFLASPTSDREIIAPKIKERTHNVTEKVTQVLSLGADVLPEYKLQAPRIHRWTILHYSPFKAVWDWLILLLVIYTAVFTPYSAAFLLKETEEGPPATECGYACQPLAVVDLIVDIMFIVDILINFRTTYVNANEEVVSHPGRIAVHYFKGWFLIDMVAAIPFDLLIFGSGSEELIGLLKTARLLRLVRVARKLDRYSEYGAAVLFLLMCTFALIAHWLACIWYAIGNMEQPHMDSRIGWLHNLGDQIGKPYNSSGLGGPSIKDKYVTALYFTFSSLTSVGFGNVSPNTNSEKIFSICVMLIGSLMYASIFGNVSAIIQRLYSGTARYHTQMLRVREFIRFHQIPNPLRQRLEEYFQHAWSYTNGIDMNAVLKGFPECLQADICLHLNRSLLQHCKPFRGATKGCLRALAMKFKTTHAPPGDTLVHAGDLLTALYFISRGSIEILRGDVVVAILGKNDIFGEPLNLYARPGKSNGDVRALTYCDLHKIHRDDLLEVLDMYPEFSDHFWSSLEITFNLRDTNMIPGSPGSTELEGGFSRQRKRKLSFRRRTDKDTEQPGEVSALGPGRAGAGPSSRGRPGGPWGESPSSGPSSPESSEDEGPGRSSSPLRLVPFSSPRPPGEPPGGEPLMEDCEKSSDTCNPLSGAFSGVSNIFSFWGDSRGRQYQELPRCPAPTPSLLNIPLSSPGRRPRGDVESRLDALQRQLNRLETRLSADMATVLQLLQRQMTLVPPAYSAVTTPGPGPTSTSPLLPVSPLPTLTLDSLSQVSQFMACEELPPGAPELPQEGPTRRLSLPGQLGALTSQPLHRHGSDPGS", "test": "hERG IC20 assay", "format": "cell-based", "description": "The methods to determine the hERG IC20 values was described in Industrializing electrophysiology: HT automated patch clamp on SyncroPatch® 96 using instant frozen cells. Polonchuk L., Methods Mol Biol. 2014; 1183:81-92. (doi: 10.1007/978-1-4939-1096-0_5.) PMID:25023303\nQT prolongation is a cardiovascular risk caused by drug candidates which inhibit the hERG channel (human ether a go-go). A sufficient safety margin between the hERG IC20 value and the free plasma concentration necessary to achieve the envisaged thereapeutic effects is desired (ICH. The nonclinical evaluation of the potential for delayed ventricular repolarization (QT interval prolongation) by human pharmaceuticals (S7B), issued as CPMP/ICH/423/02, adopted by CHMP in May 2005 (http://www.ich.org/cache/compo/276-254-1.html; Redfern W S, Carlsson L, Davis A S, Lynch W G, MacKenzie I, Palethorpe S, Siegl P K, Strang I, Sullivan A T, Wallis R, Camm A J, Hammond T G. Relationships between preclinical cardiac electrophysiology, clinical QT interval prolongation and torsade de pointes for a broad range of drugs: evidence for a provisional safety margin in drug development. Cardiovasc Res. 2003 Apr. 1; 58(1):32-45.)). Reducing the activity against efflux transporters expressed at the blood-brain-barrier such as P-glycoprotein P-gp, might result in reduction of the free plasma concentration by optimizing brain penetration."}, "[1]": {"test": "Cynomolgus monkey single dose PK study", "format": "in vivo, Cynomolgus monkey (Macacaca fascicularis)", "description": "Cynomolgus Monkey (Macacaca fascicularis) Single Dose PK Study and Plasma Aβ40 Determination\nBlood and plasma collection will always be performed in the treatment cage. The animal care keeper grabs either one arm or one leg through the bars. The hairs are shaved for better visibility of the vein. The blood vessel is squeezed, the vein is punctured by using a butterfly and blood is taken. Once enough blood has been withdrawn a cotton swab is placed over the injection site and the needle is gently removed. Bleeding is stopped by pressing a cotton swab on the wound. Plasma samples were taken between 5 min and 48 h.\nPlasma Preparation Cynomolgus\n(§3) Blood is transferred into a labeled EDTA-K2 Eppendorf tube and the sample is mixed by inverting the tubes several times. Blood is stored at −20° C."}, "CSF Aβ40": {"test_system": "CSF Aβ40", "test": "Rat single dose study, inhibition of CSF Aβ40 in Wistar rats", "format": "in vivo", "details": "rat CSF Aβ40, 1 mg/kg, 4 h post dose", "procedure": "(§4) Rat Single Dose PK Study (Inhibition of CSF Aβ40 in Wistar Rats)\n(§5) The rat single dose PK study was described in H. Hilpert et al., J. Med. Chem. 2013, 56, 3980-3995 (dx.doi.org/10.1021/jm400225m) with slight modifications.\n(§6) Aβ 40 concentration was determined without solid phase extraction following a modified protocol from Perkin-Elmer with a commercially available antibody against the N-terminal part of rat Aβ (252Q6, Invitrogen cat. No. AMB0062) and an in-house C-terminal specific anti-Aβ40 antibody (BAP-24, Brockhaus M. et al., J. Neuroreport, 1998, 9:1481-1486) bound to acceptor beads (PerkinElmer, Cat. 6772002). 20 μl analyte per well (reconstituted extracts or standard) were loaded to a White Optiplate-96 (Perkin-Elmer, Cat#6005290). Then, a mixture of biotinylated BAP24 antibody (1:2000 diluted at approximately 1 nM final concentration) and antibody 252Q6 bound to AlphaLISA acceptor beads (Perkin-Elmer cat. No. 6772002 (1:100 diluted, 10 ug/mL final concentration) in 1× AlphaLISA buffer (Perkin-Elmer, AL000F) was added. After 1 hour room temperature incubation in the dark, 20 μL of a streptavidin coated donor beads dilution (40 μg/mL) were added and incubated for 30 minutes in the dark. Light emission at 615 nm was recorded using an EnVision AlphaScreen Reader (Perkin-Elmer). Levels of Aβ 40 were calculated as percentage of the baseline samples from non-treated animals."}, "[2]": {"test_system": "Aβ40 in brain of wild-type mice", "test": "Mouse acute in vivo model (inhibition of Aβ40 in brain of wild-type mice)", "details": "4 h post dose", "procedure": "Mouse Acute In Vivo Model (Inhibition of Aβ40 in Brain of Wild-Type Mice)\nSingle Dose Efficacy in Mice\nThe mouse single dose efficacy was measured in brain homogenate from C57Bl/6J wildtype mice after DEA extraction as described in H. Hilpert et al., J. Med. Chem. 2013, 56, 3980-3995 (dx.doi.org/10.1021/jm400225m).\nas §6, with “determined after” for “determined without”, “extraction as described above and” for “extraction”, “20 uL” for “20 μL”, “of Aβ40” for “of Aβ 40”\nAβ40 lowering was determined after oral administration in wild-type mice (C57Bl/6J mice, n=3-4) 4 h post dosing. Wild-type mice were used as they have a normal physiological level of APP expression and are thus expected to provide a better physiological model for Aβ-peptide production than APP-transgenic organisms. In vivo efficacy is a key factor for appropriate drug candidates, being more relevant than in vitro activities."}, "Rat single dose PK study": {"test": "Rat single dose PK study", "format": "in vivo", "details": "1 mg/kg; for concentration at 4 h: oral", "procedure": "as §4, §5, §3"}, "Mouse P-gp": {"target": "Mouse P-gp (Mus musculus, UniProt P21447)", "sequence (P21447 whole entry)": "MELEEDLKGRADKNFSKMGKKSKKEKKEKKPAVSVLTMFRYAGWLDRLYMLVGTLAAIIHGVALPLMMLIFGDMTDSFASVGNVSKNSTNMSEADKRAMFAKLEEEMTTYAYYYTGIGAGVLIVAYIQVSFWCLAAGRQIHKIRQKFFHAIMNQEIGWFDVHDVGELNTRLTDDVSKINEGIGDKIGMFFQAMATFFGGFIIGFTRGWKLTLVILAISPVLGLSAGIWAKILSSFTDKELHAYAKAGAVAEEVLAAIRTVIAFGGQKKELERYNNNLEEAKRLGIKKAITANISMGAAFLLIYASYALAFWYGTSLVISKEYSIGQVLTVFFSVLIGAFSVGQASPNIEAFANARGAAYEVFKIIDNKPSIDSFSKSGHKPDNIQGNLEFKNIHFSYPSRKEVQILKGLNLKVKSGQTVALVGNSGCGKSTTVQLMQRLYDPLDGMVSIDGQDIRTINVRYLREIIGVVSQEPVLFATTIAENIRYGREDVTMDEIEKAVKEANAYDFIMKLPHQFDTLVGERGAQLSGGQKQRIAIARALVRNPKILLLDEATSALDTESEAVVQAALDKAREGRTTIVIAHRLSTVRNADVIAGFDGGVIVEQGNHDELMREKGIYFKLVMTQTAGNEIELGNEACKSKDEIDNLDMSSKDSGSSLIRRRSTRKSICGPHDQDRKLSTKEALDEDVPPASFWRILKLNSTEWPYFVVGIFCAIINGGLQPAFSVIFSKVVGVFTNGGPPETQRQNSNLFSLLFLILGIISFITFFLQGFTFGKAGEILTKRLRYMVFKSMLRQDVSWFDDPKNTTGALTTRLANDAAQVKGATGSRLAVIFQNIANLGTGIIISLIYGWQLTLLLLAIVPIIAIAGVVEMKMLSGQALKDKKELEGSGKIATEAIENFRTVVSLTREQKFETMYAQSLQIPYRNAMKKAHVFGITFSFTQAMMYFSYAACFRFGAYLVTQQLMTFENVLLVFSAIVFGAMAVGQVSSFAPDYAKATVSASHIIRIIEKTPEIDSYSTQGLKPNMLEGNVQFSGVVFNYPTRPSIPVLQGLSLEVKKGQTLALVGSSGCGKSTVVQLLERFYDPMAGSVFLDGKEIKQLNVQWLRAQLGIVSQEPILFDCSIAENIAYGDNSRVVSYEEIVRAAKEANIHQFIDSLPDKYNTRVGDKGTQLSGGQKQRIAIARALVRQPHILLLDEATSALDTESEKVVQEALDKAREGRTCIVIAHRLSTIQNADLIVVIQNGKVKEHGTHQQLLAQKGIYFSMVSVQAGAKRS", "test": "P-gp transport assay (mouse)", "format": "in vitro ADME", "details": "efflux ratio", "description": "as §1, §2"}}, "note": "Like-named read-outs stand apart in the source and are kept apart here."}
{"smiles": "C[C@]1(c2nc(NC(=O)c3ccc(C#N)cn3)ccc2F)N=C(N)O[C@H](C(F)(F)F)[C@@H]1F", "note": "[Comparator 6]", "values": [{"measurement": "Human P-gp ER", "setting": "Human P-gp", "value": 1.1}, {"measurement": "higher affinity to hERG than example 1", "setting": "hERG channel", "value": 6, "unit": "fold"}, {"measurement": "IC20", "setting": "hERG channel; human, hERG IC20 assay", "value": 0.4, "unit": "µM"}, {"measurement": "lower exposure compared to example 1", "setting": "[1]", "value": 5, "unit": "fold"}, {"measurement": "clearance", "setting": "[1]; plasma", "value": 9.7, "unit": "mL/min/kg"}, {"measurement": "bioavailability", "setting": "[1]; plasma, po, read-out: Oral Bioavailability F", "value": 63, "unit": "%"}, {"measurement": "half-life", "setting": "[1]; plasma, po, read-out: t1/2 p.o. (converted)", "value": 11, "unit": "h"}, {"measurement": "CSF Aβ-lowering 1 mg/kg at 4 h", "setting": "CSF Aβ40", "value": 77, "unit": "%"}, {"measurement": "Brain Aβ-lowering 3 mg/kg", "setting": "[2]; single p.o. dose 3 mg/kg", "value": 86, "unit": "%"}, {"measurement": "Brain Aβ-lowering 10 mg/kg", "setting": "[2]; single p.o. dose 10 mg/kg", "value": 94, "unit": "%"}, {"measurement": "Plasma concentration at 4 h, free", "setting": "Rat single dose PK study; 4 h, free unbound", "value": 36.3, "unit": "nM"}, {"measurement": "Plasma concentration at 4 h", "setting": "Rat single dose PK study; 4 h, total", "value": 193, "unit": "nM"}, {"measurement": "concentration at 4 h", "setting": "Rat single dose PK study; Wistar, plasma, 4 h, free unbound, read-out: Plasma concentration at 4 h, free", "value": 36.3, "unit": "nM"}, {"measurement": "concentration at 4 h", "setting": "Rat single dose PK study; Wistar, plasma, 4 h, free, read-out: Plasma concentration at 4 h, free", "value": 85, "unit": "ng/mL"}, {"measurement": "concentration at 4 h", "setting": "Rat single dose PK study; Wistar, plasma, 4 h, total, read-out: Plasma concentration at 4 h", "value": 85, "unit": "ng/mL"}, {"measurement": "bioavailability", "setting": "Rat single dose PK study; Wistar, plasma, po, read-out: Oral Bioavailability F", "value": 19, "unit": "%"}, {"measurement": "Mouse P-gp ER", "setting": "Mouse P-gp", "value": 2.4}]}
